Values quoted from earlier work in patent US20230338402A1, “TREATMENT REGIMEN FOR CANCER USING IMMUNOMODULATION” (BioXcel Therapeutics, Inc., priority 2020, published 2023).
Structures can show the parent of a compound that is named as a salt.

Legend:
[1] = test system: melanoma; settings: melanoma patients
[2] = test system: CYP1A2
[3] = target: T1, CYP1A2 (Homo sapiens, UniProt P05177); settings: human liver CYP isoenzymes, preclinical studies
T1 sequence (P05177 1-516): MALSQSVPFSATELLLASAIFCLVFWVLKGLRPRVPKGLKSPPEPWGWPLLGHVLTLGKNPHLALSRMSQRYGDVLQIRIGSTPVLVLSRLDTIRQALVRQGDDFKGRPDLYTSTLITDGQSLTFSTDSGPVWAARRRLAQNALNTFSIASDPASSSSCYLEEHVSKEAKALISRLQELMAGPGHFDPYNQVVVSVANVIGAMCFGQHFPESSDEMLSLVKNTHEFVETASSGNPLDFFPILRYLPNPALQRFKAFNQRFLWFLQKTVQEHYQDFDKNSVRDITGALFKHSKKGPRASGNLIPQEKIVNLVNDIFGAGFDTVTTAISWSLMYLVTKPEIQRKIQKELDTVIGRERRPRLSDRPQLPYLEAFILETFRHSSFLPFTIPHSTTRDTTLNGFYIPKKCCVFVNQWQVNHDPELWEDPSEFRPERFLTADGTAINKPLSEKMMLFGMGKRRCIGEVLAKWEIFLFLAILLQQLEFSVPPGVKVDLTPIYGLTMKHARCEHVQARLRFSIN

[4] = test system: CYP3A4
[5] = target: CYP2D6 (Homo sapiens, UniProt P10635)
Sequence of CYP2D6 (P10635 whole entry): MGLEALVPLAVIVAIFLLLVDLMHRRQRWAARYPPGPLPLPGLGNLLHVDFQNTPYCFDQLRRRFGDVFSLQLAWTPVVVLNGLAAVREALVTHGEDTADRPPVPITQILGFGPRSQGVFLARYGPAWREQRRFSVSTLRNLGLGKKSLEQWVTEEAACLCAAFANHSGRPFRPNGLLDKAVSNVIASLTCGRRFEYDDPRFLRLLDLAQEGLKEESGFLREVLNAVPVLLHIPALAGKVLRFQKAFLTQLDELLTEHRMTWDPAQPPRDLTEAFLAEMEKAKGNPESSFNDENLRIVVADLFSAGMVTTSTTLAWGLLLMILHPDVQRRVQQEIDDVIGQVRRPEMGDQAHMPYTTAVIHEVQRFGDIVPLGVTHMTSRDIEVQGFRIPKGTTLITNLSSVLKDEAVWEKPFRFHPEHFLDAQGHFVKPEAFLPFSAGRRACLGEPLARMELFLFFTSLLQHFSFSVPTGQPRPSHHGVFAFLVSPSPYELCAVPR

[6] = target: CYP2C9 (Homo sapiens, UniProt P11712)
Sequence of CYP2C9 (P11712 whole entry): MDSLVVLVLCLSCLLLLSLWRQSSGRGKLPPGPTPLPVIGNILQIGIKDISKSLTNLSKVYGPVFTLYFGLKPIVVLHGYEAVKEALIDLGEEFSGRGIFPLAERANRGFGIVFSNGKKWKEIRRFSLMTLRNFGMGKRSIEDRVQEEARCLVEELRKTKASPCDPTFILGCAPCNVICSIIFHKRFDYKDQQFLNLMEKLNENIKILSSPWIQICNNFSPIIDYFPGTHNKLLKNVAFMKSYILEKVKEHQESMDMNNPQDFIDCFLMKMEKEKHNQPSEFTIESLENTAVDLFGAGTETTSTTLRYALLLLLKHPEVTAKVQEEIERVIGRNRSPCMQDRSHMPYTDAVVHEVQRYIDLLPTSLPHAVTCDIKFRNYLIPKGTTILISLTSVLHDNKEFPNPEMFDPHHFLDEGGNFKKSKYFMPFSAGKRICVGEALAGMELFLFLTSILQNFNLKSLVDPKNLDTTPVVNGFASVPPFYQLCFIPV

[7] = target: T2, CYP2C8 (Homo sapiens, UniProt P10632)
T2 sequence (P10632 1-490): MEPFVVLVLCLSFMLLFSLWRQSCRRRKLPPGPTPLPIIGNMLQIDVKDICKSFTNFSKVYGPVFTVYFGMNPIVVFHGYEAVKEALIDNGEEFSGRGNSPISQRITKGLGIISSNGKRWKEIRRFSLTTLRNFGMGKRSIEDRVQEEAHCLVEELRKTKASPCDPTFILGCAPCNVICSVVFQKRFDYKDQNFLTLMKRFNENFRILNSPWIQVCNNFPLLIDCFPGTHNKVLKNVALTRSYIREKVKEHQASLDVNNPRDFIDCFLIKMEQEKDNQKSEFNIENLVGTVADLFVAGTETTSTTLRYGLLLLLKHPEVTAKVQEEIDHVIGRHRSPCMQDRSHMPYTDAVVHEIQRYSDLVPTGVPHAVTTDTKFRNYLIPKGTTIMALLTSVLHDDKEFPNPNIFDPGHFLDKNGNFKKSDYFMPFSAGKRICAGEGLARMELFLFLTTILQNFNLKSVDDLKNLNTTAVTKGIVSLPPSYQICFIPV

[8] = target: CYP3A4 (Homo sapiens, UniProt P08684)
Sequence of CYP3A4 (Homo sapiens, UniProt P08684) (P08684 whole entry): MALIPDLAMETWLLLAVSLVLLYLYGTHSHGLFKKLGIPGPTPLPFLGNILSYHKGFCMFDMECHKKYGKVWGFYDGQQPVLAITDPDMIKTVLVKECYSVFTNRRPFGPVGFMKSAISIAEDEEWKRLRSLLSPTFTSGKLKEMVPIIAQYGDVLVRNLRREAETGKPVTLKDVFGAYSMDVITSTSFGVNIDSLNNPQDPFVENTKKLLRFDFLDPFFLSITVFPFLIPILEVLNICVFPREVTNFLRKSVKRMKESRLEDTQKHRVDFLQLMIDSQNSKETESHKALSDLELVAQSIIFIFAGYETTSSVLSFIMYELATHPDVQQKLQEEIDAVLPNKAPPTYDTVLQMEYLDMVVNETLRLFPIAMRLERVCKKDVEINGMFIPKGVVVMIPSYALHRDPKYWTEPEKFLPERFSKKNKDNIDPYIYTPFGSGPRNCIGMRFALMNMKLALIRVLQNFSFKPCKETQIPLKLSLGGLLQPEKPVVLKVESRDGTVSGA

[9] = target: CYP2C19 (Homo sapiens, UniProt P33261)
Sequence of CYP2C19 (P33261 whole entry): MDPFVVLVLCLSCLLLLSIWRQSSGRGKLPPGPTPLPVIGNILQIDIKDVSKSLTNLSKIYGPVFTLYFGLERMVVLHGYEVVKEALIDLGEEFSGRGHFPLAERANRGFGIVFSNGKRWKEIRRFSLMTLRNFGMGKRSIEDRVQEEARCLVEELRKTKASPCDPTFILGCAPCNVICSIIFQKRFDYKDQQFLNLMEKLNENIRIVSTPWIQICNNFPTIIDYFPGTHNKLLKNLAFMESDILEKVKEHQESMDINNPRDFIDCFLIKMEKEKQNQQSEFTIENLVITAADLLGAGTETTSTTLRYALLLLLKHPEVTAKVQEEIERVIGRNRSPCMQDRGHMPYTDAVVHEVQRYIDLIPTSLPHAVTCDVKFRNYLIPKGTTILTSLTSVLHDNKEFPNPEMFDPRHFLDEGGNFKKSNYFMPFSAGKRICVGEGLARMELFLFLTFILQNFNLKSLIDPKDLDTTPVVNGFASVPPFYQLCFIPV

| Compound | Response rate [1] [%] | Induction of CYP1A2 [2] | Potential to inhibit CYP1A2 [3] | Induction of CYP3A4 [4] | Potential to inhibit CYP2D6 [5] | Potential to inhibit CYP2C9 [6] | Potential to inhibit CYP2C8 [7] | Potential to inhibit CYP3A4 [8] | Potential to inhibit CYP2C19 [9] |
| --- | --- | --- | --- | --- | --- | --- | --- | --- | --- |
| Nivolumab: PD-1 antagonist, immune checkpoint inhibitor antibody | 32 |  |  |  |  |  |  |  |  |
| Ipilimumab: CTLA-4 antagonist, immune checkpoint inhibitor antibody | 11 |  |  |  |  |  |  |  |  |
| CC(C)[C@H](N)C(=O)N1CCC[C@H]1B(O)O [Talabostat mesylate, [(2R)-1-[(2S)-2-amino-3-methylbutanoyl]pyrrolidin-2-yl]boronic acid] |  | did not induce | low potential | did not induce | low potential | low potential | low potential | low potential | low potential |
